In patent EP1464336A1, “Use of tryprostatin A for the reversal of cancer drug resistance” (Humboldt-Universität zu Berlin, priority 2003, dated 2004):
“Also recorded” adds a separate entry of the source.

Assays:
Type in all cases: cell-based, human
[1] = test system: BCRP overexpressing cells (EPG85-257RNOV); test: Annexin assay: FITC-Annexin V binding, exposure of endogenous PS (flow cytometry); conditions: preincubation with 5 µM Tryprostatin A for 30 min at 37°C (Fig. 9, 10)
Method: (§1) To measure exposure of endogenous PS on the cell surface, cells were incubated on ice for 10 minutes in the dark with 9 nM FITC-Annexin V in binding buffer. Two minutes prior to the end of the incubation, propidium iodide (final 1.9 µM) was added. Cells were then washed three times, detached from the dishes through pipetting, and suspended in binding buffer. Measurement was performed with a FACSCalibur flow cytometer (Becton Dickinson, St. Louis, MO) 5 minutes after the end of incubation. Regions were set to exclude subcellular particles, and only single cells were counted (10 000 cells / sample). A further gate excluded damaged cells with elevated propidium iodide staining. Data were analyzed by Becton Dickinson CellQuest software.

[2] = test system: control cells (EPG85-257P); test: as above; conditions: treatment with Tryprostatin A (data not shown)
Method: as §1

[3] = test system: BCRP overexpressing cells (EPG85-257RNOV); test: C6-NBD-PS outward translocation assay; conditions: pretreatment with 10 µM inhibitor; 30 minutes at 37°C (Fig. 8)
Method: (§2) To measure redistribution of C6-NBD-PS from the cytoplasmic to the exoplasmic leaflet, labelling of the cytoplasmic leaflet is preconditional. Previously, we have introduced a method to achieve efficient labeling of the plasma membrane inner leaflet of the gastric carcinoma cell line EPG85-257 (Pohl, A., Lage, H., Müller, P., Pomorksi, T., and Herrmann. A. (2002) Biochem. J. 365, 259-268). Briefly, cells were preincubated with or without MDR inhibitors, labelled with 5 µM C6-NBD-PS, and incubated at 20°C for 30 minutes to allow inward movement of the NBD analogue. C6-NBD-PS remaining on the cell surface was extracted twice by incubation with 2% (w/v) BSA in mPBS for 10 minutes on ice. Before starting the outward translocation assay, the medium was removed, and cells were washed with ice-cold mPBS. For t=0', ice-cold medium containing 2% (w/v) BSA and 5 mM DFP ( = diisopropyl fluoro-phosphate) in mPBS with or without inhibitor was immediately added to the cell dish for 10 minutes. To measure C6-NBD-PS outward translocation, medium prewarmed to 37°C was added to the dish, and cells were incubated at 37°C for 30 minutes (t = 30'). Removal of the BSA-containing media and a second extraction with 2% BSA in mPBS for 10 minutes terminated incubations, followed by lipid analysis.
(§3) After the incubations, the second BSA back exchange medium was pooled with the first, and cells scraped into mPBS. For analysis of outward translocation and of metabolic conversion of C6-NBD-PS, lipids from both scraped cells and media were extracted with isopropanol/chloroform/(5.5:1, v/v) to prevent substantial loss into the aqueous phase. Samples were centrifuged at 780 g for 5 minutes, the supernatant transferred into new glass tubes and dried, dissolved in chloroform/methanol (1:1) and quantified spectroscopically. For C6-NBD-PC analysis, lipids from both cells and incubation media were extracted by the method of Bligh and Dyer (Bligh, E., and Dyer, W. (1959) Can. J Biochem. Physiol. 37, 911-917) using 20 mM acetic acid in the aqueous phase. After 2-D separation [I, chloroform/methanol/25% ammonium hydroxide (65:25:4, v/v); II, chloroform/acetone/methanol/acetic acid/water (10:4:2:2:1, v/v)] on thin layer chromatography plates, fluorescent lipid spots were visualized under ultraviolet light, scraped, and quantified as described before (Pomorski, T., Müller, P., Zimmermann, B., Burger, K., Devaux, P., and Herrmann, A. (1996) J. Cell Sci. 109, 687-698).

[4] = test system: MDR1 Pgp overexpressing subline (EPG85-257RDB); test: C6-NBD-PS outward translocation assay; conditions: 10 µM inhibitor; 30 minutes at 37°C (Fig. 8)
Method: as §2, §3

[5] = test system: control cells (EPG85-257P); test: C6-NBD-PS outward translocation assay; conditions: 10 µM inhibitor; 30 minutes at 37°C (Fig. 8)
Method: as §2, §3

[6] = test system: BCRP-positive, atypical MDR gastric carcinoma cell line EPG85-257RNOV; test: Mitoxantrone accumulation assay (flow cytometry); conditions: 10 µM TPS-A; mitoxantrone 60 min at 37 °C (Fig 4A)
Method: (§4) Cellular mitoxantrone accumulation was determined according to the procedure described in Lage H et al., FEBS Lett 2001;503:179-84. Briefly, 4 x 10^5 cells were seeded out in 6-well plates 78 hours prior to the experiment. Incubation with mitoxantrone (0, 1,5 and 10 µg/ml) was performed for 60 minutes at 37°C and 70-80 % cellular confluence. For kinetics of intracellular enrichment of mitoxantrone, cells were exposed to 10 µg/ml mitoxantrone for 0, 5, 10 and 60 min. Cells were washed with ice-cold PBS, trypsinized and resuspended in 4 °C PBS at a concentration of 4 x 10^5 cells/ml. Intracellular fluorescence of mitoxantrone was determined by flow cytometry (Becton-Dickinson, San Jose, CA). The cells were excited at 480 nm and emission was measured at 630 nm. A minimum of 10^4 cells was analyzed for each sample. All assays were performed at least in three independent experiments, each time with triplicate wells.
(§5) To provide confirmation that the observed resensitization to mitoxantrone of BCRP-overexpressing cells was indeed the result of BCRP inhibition by TPS-A, a mitoxantrone accumulation assay was performed. The known so-called "multispecific" MDR modulator GF120918, inhibiting P-gp- and BCRP activity, was used as a positive control for P-gp- and BCRP antagonism.

[7] = test system: parental, drug-sensitive gastric carcinoma cell variant EPG85-257P; test: Mitoxantrone accumulation assay (flow cytometry); conditions: TPS-A (Fig 4A)
Method: as §4, §5

[8] = test system: drug-sensitive, parental cell line MCF-7; test: Mitoxantrone accumulation assay (flow cytometry); conditions: increasing modulator concentrations
Method: as §4, §5

[9] = test system: P-gp-expressing, classical MDR variant EPG85-257RDB; test: Mitoxantrone accumulation assay (flow cytometry); conditions: TPS-A (Fig 4A)
Method: as §4, §5

[10] = test system: MCF-7/AdrVp; test: Mitoxantrone accumulation assay (flow cytometry); conditions: 50 µM TPS-A
Method: as §4, §5

[11] = test system: BCRP-transfected cell variant MCF-7/BCRP clone 8; test: Mitoxantrone accumulation assay (flow cytometry); conditions: 50 µM TPS-A; compared to drug accumulation level in the untreated, parental control cell line (Fig 4B)
Method: as §4, §5

Structure (SMILES): COc1ccc2c(C[C@@H]3NC(=O)[C@@H]4CCCN4C3=O)c(CC=C(C)C)[nH]c2c1 [TPS-A, tryprostatin A]
- level of Annexin V binding [1]: reduced the level of Annexin V binding to that of control cells; also recorded: reduced to the level found for control cells
- Annexin V binding [2]: not affected
- amount of C6-NBD-PS in the BSA containing medium (outward translocation) [3]: sharp and highly significant decrease
- PS analogue outward translocation (MDR1 Pgp lipid transport activity) [4]: did not affect
- PS transport (C6-NBD-PS outward translocation) [5]: did not affect PS transport significantly
- increase to % of the mitoxantrone accumulation level of untreated drug-sensitive cells [6]: 40%
- mitoxantrone accumulation [7]: slightly increased mitoxantrone accumulation
- effect on drug accumulation [8]: only a weak dosage-depending effect
- drug transporter inhibiting effect (mitoxantrone accumulation) [9]: No significant drug transporter inhibiting effect
- increase of drug accumulation with respect to control cells [10]: 45%
- inhibition of the mitoxantrone pump activity [11]: completely
